Entries after “also recorded” stand apart in the source; their conditions may differ.
Assays:
[1] = tested on: Immature Sprague Dawley CD (SD) BR female rats; experiment: In vivo Rat Follicle Maturation Assay (ovulated oocytes after r-hCG); details: for ovulatable oocytes compared with high dose of FSH alone: 0.4 mg/kg combined with low dose of FSH; for effect on FSH-induced follicle maturation: in vivo, with FSH
[2] = tested on: PDE1; details: cited from earlier work
[3] = biological target: PDE5 (Homo sapiens, UniProt O76074); details: cited from earlier work
[4] = tested on: Immature Sprague Dawley CD (SD) BR female rats; experiment: Histological count of secondary and antral follicles in rat ovaries; assay type: in vivo
[5] = tested on: PDE3; details: cited from earlier work
[6] = test compound 25 mg/kg×4 injections s.c. in NP3S with Low Dose FSH
[7] = test compound 1 mg/kg×4 injections s.c. in NP3S with Low Dose FSH
[8] = test compound 1 mg/kg×4 s.c. in NP3S with Low Dose FSH
[9] = test compound 5 mg/kg×4 injections s.c. in NP3S with Low Dose FSH
[10] = test compound 5 mg/kg×4 s.c. in NP3S with Low Dose FSH
[11] = test compound 25 mg/kg×4 s.c. in NP3S with Low Dose FSH
[12] = test compound 5 mg/kg×4 s.c. in aqueous vehicle with Low Dose FSH

5′-Methyl-2′(biphenylylmethyl)-3′-(phenylmethyl)spiro[cyclopentane-1,7′(8′h)-[3H]imidazo[2,1-b]purin]-4(5′h)-one [Compound no. 33]
average number of oocytes per rat [1, 6]: 27
Follicular growth activity with Low FSH? [1]: YES
IC50 [2]: 0.6 nM
IC50 [3]: 200 nM

COc1ccc([C@]2(C#N)CC[C@@H](C(=O)O)CC2)cc1OC1CCCC1 [ARIFLO (Cilomilast), Cilomilast]
Follicular growth activity with Low FSH? [1]: Inhibits follicular growth

COc1ccc([C@H](Cc2ccncc2)c2ccccc2)cc1OC1CCCC1 [CDP840]
Follicular growth activity with Low FSH? [1]: Inhibits follicular growth

OCCN(CCO)c1nc(N2CCCCC2)c2nc(N(CCO)CCO)nc(N3CCCCC3)c2n1 [Dipyridamole]
average number of oocytes per rat [1, 7]: 7.5
rats ovulated [1, 8]: 7 out of 10
average number of oocytes per rat [1, 9]: 6.8
rats ovulated [1, 10]: 6 out of 10
average number of oocytes per rat [1, 6]: 6.2
rats ovulated [1, 11]: 10 out of 10
Follicular growth activity with Low FSH? [1]: YES

CCCOc1cc([C@]2(C)CNC(=O)O2)ccc1OC [Mesopram]
follicular maturation, lower dose series ([1]; 0.032, 0.016, 0.08 mg/kg together with a low dose of FSH, significance at 0.08 mg/kg): dose dependent increase in follicular maturation
follicular maturation versus low FSH alone ([1]; 0.08, 0.4, and 2 mg/kg/day together with a low dose of FSH): significant enhancement of follicular maturation
follicular maturation at higher doses ([1]; higher doses of the 0.08-2 mg/kg/day series, with low dose FSH): decrease in follicular maturation

COc1ccc(C(=O)Nc2c(Cl)cncc2Cl)cc1OC1CCCC1 [Piclamilast]
ovulatable oocytes compared with high dose of FSH alone [1]: produces more ovulatable oocytes than even the high dose of FSH alone
follicle maturation, compound alone ([1]; 2 mg/kg, without co-administration of FSH): did induce follicle maturation; also recorded: increased the hCG ovulatable oocytes
follicle maturation, compound alone ([1]; 0.08 and 0.4 mg/kg, absence of exogenous FSH): not sufficient to induce follicle maturation
follicle maturation (number of ovulatable oocytes) ([1]; in the presence of low doses of FSH): very marked induction in follicle maturation
effect on FSH-induced follicle maturation [1]: increased FSH-induced follicle maturation

O=C(Nc1c(Cl)cncc1Cl)c1ccc(OC(F)F)c(OCC2CC2)c1 [Roflumilast]
ovulatable oocytes compared with high dose of FSH alone [1]: produces more ovulatable oocytes than even the high dose of FSH alone
effect on FSH-induced follicle maturation [1]: increased FSH-induced follicle maturation

CCCc1nn(C)c2c(=O)[nH]c(-c3cc(S(=O)(=O)N4CCN(C)CC4)ccc3OCC)nc12 [Sildenafil, 5-[2-ethoxy-5-(4-methyl-1-piperazinylsulphonyl)phenyl]-1-methyl-3-n-propyl-1,6-dihydro-7H-pyrazolo[4,3-d]pyrimidin-7-one]
number of ovulated oocytes per rat as compared to Low Dose FSH alone plus aqueous vehicle control ([1]; 1, 5 and 25 mg/kg×4 s.c. in aqueous vehicle with Low Dose FSH): dose-related increase
average number of oocytes per rat [1, 7]: 3.5
rats ovulated [1, 8]: 6 out of 8
average number of oocytes per rat [1, 9]: 5.5
rats ovulated [1, 10]: 5 out of 8
average number of oocytes per rat [1, 12]: 20
rats ovulated [1, 12]: 7 out of 8
average number of oocytes per rat [1, 6]: 6.9
rats ovulated [1, 11]: 7 out of 8
Follicular growth activity with Low FSH? [1]: YES
total number of antral follicles per rat (2 ovaries) ([4]; Low FSH + 75 mg/kg Sildenafil): 7.4
total number of secondary follicles per rat (2 ovaries) ([4]; Low FSH + 75 mg/kg Sildenafil (25 mg/kg×3)): 84
IC50 [2]: 260 nM

CN1CC(=O)N2[C@H](c3ccc4c(c3)OCO4)c3[nH]c4ccccc4c3C[C@@H]2C1=O [Tadalafil, (6R,12aR)-2,3,6,7,12,12a-hexahydro-2-methyl-6-(-3,4-methylenedioxyphenyl)pyrazino[2′,1′:6,1]pyrido[3,4-b]indole-1,4-dione]
average number of oocytes per rat ([1]; test compound 25 mg/kg×4 s.c. in water with Low Dose FSH): 16
Follicular growth activity with Low FSH? [1]: YES
IC50 [2]: > 30000 nM

CCCOc1ccccc1-c1nc2nn[nH]c2c(=O)[nH]1 [Zaprinast]
average number of oocytes per rat [1, 7]: 3.25
rats ovulated [1, 8]: 6 out of 10
average number of oocytes per rat [1, 9]: 6.4
rats ovulated [1, 10]: 9 out of 10
average number of oocytes per rat [1, 6]: 9.5
rats ovulated [1, 11]: 10 out of 10
Follicular growth activity with Low FSH? [1]: YES
IC50 [5]: > 100000 nM
IC50 [2]: 9400 nM

(6aR,9aS)-2-(Biphenylylmethyl)-5,6a,7,8,9,9a-hexahydro-5-methyl-3(phenylmethyl)cyclopent[4,5]imidazo-[2,1-b]purin-4(3H)-one [Compound no. 31]
average number of oocytes per rat [1, 6]: 18
Follicular growth activity with Low FSH? [1]: YES
IC50 [2]: 0.07 nM
IC50 [3]: 305 nM

From patent US7153824B2, “Inhibitors of phosphodiesterases in infertility” (Applied Research Systems ARS Holding N.V., priority 2003, dated 2006)
